Five substances from US20250339489A1, “COMPOSITION FOR SUPPRESSING HAIR LOSS OR PROMOTING HAIR GROWTH CONTAINING PEPTIDE” (AMOREPACIFIC CORPORATION, priority 2024, published 2025) can be followed below.

This experiment relates to Human dermal papilla cells (HDPCs). The experiment is described as follows: Activation of hair dermal papilla cell proliferation (CCK8 assay, absorbance at 450 nm). In kind it is cell-based. Conditions: serum-free DMEM, peptide at 0.1 μM, 1 μM and 10 μM, 72 hours. The method, then:
Human dermal papilla cells (HDPCs) were attached to a 96-well plate at 2,000 cells per well, and then cultured using DMEM medium (Sigma Aldrich) containing 10% FBS and 1% penicillin/streptomycin (P/S; Sigma Aldrich) for 24 hours, the medium was then exchanged with serum-free DMEM, and diluted samples were treated with a GPK, GPS, GPA, GQK, or PO peptide at a concentration of each of 0.1 μM, 1 μM, and 10 μM, for 72 hours, and then treated with a CCK8 reagent for 1 hour to measure the absorbance at 450 nm using a microplate reader (TECAN), and the results are shown in FIGS. 1 to 5 (FIG. 1: GPK, FIG. 2: GPS, FIG. 3: GPA, FIG. 4: GQK, and FIG. 5: PO). As a positive control (PC), a 5% fetal bovine serum (FBS) treated group was used.
Consider Gly-Gln-Lys [GQK], for which the “cell proliferation compared to the untreated control” value is given as “significantly increased”.

Take Gly-Pro-Ala [GPA]: the “cell proliferation compared to the untreated control” value is “significantly increased”.

On to Gly-Pro-Lys [GPK], for which the “cell proliferation compared to the untreated control” value is “significantly increased”.

Gly-Pro-Ser [GPS]: the “cell proliferation compared to the untreated control” value was “significantly increased”.

For Pro-Hyp [PO], the “cell proliferation compared to the untreated control” value was “significantly increased”.
